Reference: US9376436B2, “2-(pyridin-2yl)-1, 7-diaza-spiro [4.4] nonane-6-one compound as voltage-gated sodium channels modulators” (CONVERGENCE PHARMACEUTICALS LIMITED, priority 2011, dated 2016)
Structures can show the parent of a compound that is named as a salt. Where two headings read alike, the source gives them in different places.

Biological target: T1, hNaV1.7 (Homo sapiens, UniProt Q15858)
T1 construct: expressed in transfected cells; host or cells: HEK293
Assay: QPatch NaV1.7 assay (whole-cell patch clamp, QPatch16x)
Format: cell-based
Conditions: HEK293-hNaV1.7 cells
In short: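 HEK293 cells expressing hNaV1.7 recorded by automated whole-cell patch clamp (CsF internal, pH 7.3). Peak currents from 20 ms steps to 0 mV measured at holding potentials of −90 mV and V1/2 SSI; four-point cumulative concentrations, 120 s each, Hill fits gave pIC50 at each potential.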

[1] = holding voltage V1/2 SSI (half of channels inactivated), read-out: QP Nav1.7 SSI vhalf pIC50 (converted)
[2] = holding voltage −90 mV (most channels closed), read-out: QP Nav1.7 −90 mV pIC50 (converted)

T1 sequence (Q15858 whole entry): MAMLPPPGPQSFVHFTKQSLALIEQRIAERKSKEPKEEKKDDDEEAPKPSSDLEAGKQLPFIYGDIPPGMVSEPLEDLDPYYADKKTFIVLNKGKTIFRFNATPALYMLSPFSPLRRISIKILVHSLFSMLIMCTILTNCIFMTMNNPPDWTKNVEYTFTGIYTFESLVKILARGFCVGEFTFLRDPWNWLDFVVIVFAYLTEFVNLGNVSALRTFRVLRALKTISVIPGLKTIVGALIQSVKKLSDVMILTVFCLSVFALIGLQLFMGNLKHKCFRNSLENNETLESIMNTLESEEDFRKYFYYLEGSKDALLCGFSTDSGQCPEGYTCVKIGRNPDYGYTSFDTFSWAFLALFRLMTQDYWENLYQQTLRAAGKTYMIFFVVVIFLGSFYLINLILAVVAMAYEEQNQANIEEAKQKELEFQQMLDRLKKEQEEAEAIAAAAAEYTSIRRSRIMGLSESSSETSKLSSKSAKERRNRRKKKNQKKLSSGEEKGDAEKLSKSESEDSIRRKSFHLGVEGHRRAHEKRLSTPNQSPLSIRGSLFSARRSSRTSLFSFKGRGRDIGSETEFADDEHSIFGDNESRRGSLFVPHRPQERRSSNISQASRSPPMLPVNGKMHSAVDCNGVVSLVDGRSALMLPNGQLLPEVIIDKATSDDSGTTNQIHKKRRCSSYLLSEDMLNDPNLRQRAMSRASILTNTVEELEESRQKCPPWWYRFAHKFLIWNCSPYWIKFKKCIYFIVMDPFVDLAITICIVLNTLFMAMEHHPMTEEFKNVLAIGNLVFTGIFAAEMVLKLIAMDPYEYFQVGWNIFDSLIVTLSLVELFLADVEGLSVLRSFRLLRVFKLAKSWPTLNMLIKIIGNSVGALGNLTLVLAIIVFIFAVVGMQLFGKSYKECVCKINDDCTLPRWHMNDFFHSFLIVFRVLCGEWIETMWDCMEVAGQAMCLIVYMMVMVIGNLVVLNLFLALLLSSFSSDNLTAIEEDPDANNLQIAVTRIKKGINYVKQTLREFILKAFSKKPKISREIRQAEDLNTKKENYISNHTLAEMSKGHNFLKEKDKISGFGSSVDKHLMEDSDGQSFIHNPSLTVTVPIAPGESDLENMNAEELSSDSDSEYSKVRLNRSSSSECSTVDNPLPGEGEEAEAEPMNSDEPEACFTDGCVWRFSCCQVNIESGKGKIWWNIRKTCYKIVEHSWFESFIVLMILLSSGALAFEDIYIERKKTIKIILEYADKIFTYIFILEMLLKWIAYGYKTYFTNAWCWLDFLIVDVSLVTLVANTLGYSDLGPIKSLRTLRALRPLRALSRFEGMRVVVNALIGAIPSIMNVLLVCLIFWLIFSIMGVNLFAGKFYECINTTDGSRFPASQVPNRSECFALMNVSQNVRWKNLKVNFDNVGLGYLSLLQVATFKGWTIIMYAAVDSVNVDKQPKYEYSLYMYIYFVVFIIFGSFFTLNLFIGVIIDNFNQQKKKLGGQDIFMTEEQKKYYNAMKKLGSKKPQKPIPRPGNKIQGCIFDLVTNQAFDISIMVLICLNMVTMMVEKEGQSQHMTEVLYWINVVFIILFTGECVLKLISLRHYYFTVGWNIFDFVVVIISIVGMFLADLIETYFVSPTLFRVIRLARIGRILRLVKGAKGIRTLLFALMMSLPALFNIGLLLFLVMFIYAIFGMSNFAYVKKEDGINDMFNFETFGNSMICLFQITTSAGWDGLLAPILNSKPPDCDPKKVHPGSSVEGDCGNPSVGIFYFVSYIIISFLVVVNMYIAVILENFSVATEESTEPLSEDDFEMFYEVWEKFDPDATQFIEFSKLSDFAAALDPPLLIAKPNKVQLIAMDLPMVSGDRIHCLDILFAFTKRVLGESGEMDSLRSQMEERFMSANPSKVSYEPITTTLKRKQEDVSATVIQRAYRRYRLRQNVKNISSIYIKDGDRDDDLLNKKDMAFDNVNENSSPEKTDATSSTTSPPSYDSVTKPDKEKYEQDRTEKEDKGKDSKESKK

Structure (SMILES) | IC50 [1] | IC50 [2]
CCOc1ccc(F)c(-c2cc([C@@H]3CC[C@@]4(CCN(C)C4=O)N3)ncc2F)c1 [Example 224, (2S,5S)-2-[4-(5-Ethoxy-2-fluoro-phenyl)-5-fluoro-2-pyridyl]-7-methyl-1,7-diazaspiro[4.4]nonan-6-one hydrochloride] | 15.8 µM | 100 µM
CCOc1ccc(F)c(-c2cc([C@@H]3CC[C@]4(CCN(C)C4=O)N3)ncc2F)c1 [Example 221, (2S,5R)-2-[4-(5-Ethoxy-2-fluoro-phenyl)-5-fluoro-2-pyridyl]-7-methyl-1,7-diazaspiro[4.4]nonan-6-one hydrochloride] | 31.6 µM | 316 µM
COc1cc(C(F)(F)F)ccc1-c1cc(C)nc([C@H]2CC[C@]3(CCN(C)C3=O)N2)c1 [Example 90, (3R,5R)-3-[4-[2-Methoxy-4-(trifluoromethyl)phenyl]-6-methyl-2-pyridyl]-8-methyl-4,8-diazaspiro[4.4]nonan-9-one hydrochloride] | 0.316 µM | 6.31 µM
CN1[C@H](c2cc(-c3ccc(C(F)(F)F)cc3)ccn2)CC[C@]12CCCNC2=O [Example 230, hydrochloride] | 1.26 µM | 25.1 µM
O=C1NCCC[C@@]12CC[C@@H](c1cc(-c3ccc(C(F)(F)F)cc3)ccn1)N2 [Example 48, (2S,5R)-2-[4-(4-Trifluoromethyl-phenyl)-pyridin-2-yl]-1,7-diaza-spiro[4.5]decan-6-one hydrochloride] | 2 µM | 25.1 µM
CCOc1ccc(F)cc1-c1ccnc([C@H]2CC[C@@]3(CCN(C)C3=O)N2)c1 [Example 4, (2R,5S)-2-[4-(2-Ethoxy-5-fluoro-phenyl)-pyridin-2-yl]-7-methyl-1,7-diaza-spiro[4.4]nonan-6-one hydrochloride] | 12.6 µM | 200 µM
CN1CC[C@@]2(CC[C@H](c3cc(-c4cc(-n5cccn5)ccc4F)ccn3)N2)C1=O [Example 184, (2R,5S)-2-[4-(2-Fluoro-5-pyrazol-1-yl-phenyl)-2-pyridyl]-7-methyl-1,7-diazaspiro[4.4]nonan-6-one hydrochloride] | 10 µM | 126 µM
CCOc1ccc(F)c(-c2cc(C)nc(C3CCC4(CCN(C)C4=O)N3)c2C)c1 (mixture of isomers) [Example 256, 2-[4-(5-Ethoxy-2-fluoro-phenyl)-3,6-dimethyl-2-pyridyl]-7-methyl-1,7-diazaspiro[4.4]nonan-6-one hydrochloride] | 2.51 µM | 20 µM
O=C1NCCC[C@]12CC[C@H](c1cc(-c3ccc(C(F)(F)F)cc3)ccn1)N2 [Example 50, (2R,5S)-2-[4-(4-Trifluoromethyl-phenyl)-pyridin-2-yl]-1,7-diaza-spiro[4.5]decan-6-one hydrochloride] | 0.251 µM | 2.51 µM
Cc1cc(-c2cccc(OC(F)(F)F)c2)cc([C@@H]2CC[C@]3(CCN(C)C3=O)N2)n1 [Example 128, (2S,5R)-7-Methyl-2-[6-methyl-4-[3-(trifluoromethoxy)phenyl]-2-pyridyl]-1,7-diazaspiro[4.4]nonan-6-one hydrochloride] | 5.01 µM | 20 µM
CN1CC[C@@]2(CC[C@@H](c3cc(-c4ccccc4F)ccn3)N2)C1=O [Example 33, (2S,5S)-2-[4-(2-Fluoro-phenyl)-pyridin-2-yl]-7-methyl-1,7-diaza-spiro[4.4]nonan-6-one hydrochloride] | 39.8 µM | 126 µM
CCOc1ccc(F)c(-c2cc(C(C)C)nc([C@@H]3CC[C@@]4(CCN(C)C4=O)N3)c2)c1 [Example 236, (2S,5S)-2-[4-(5-Ethoxy-2-fluoro-phenyl)-6-isopropyl-2-pyridyl]-7-methyl-1,7-diazaspiro[4.4]nonan-6-one hydrochloride] | 0.631 µM | 6.31 µM
CN1CC[C@@]2(CC[C@H](c3cc(-c4cc(OCC(F)F)ccc4F)ccn3)N2)C1=O [Example 252, (2R,5S)-2-[4-[5-(2,2-Difluoroethoxy)-2-fluoro-phenyl]-2-pyridyl]-7-methyl-1,7-diazaspiro[4.4]nonan-6-one hydrochloride] | 12.6 µM | 79.4 µM
CN1CC[C@@]2(CC(F)C(c3cc(-c4ccc(C(F)(F)F)cc4)ccn3)N2)C1=O (single isomer, unassigned) [Example 239] | 15.8 µM | 251 µM
O=C1NCCC[C@@]12CC[C@H](c1cc(-c3ccc(C(F)(F)F)cc3)ccn1)N2 [Example 49, (2R,5R)-2-[4-(4-Trifluoromethyl-phenyl)-pyridin-2-yl]-1,7-diaza-spiro[4.5]decan-6-one hydrochloride] | 3.98 µM | 50.1 µM
Cc1cc(-c2cc(C(F)(F)F)ccc2C#N)cc([C@@H]2CC[C@]3(CCN(C)C3=O)N2)n1 [Example 21, 2-[2-Methyl-6-[(2S,5R)-7-methyl-6-oxo-1,7-diazaspiro[4.4]-nonan-2-yl]-4-pyridyl]-4-(trifluoromethyl)-benzonitrile hydrochloride] | 31.6 µM | 794 µM

Structure (SMILES) | IC50 [1] | IC50 [2]
Cc1cc(-c2ccc(OC(C)C)cc2)cc([C@@H]2CC[C@@]3(CCN(C)C3=O)N2)n1 [Example 86, (2S,5S)-2-[4-(4-Isopropoxyphenyl)-6-methyl-2-pyridyl]-7-methyl-1,7-diazaspiro[4.4]nonan-6-one hydrochloride] | 10 µM | 100 µM
CN1CC[C@@]2(CC[C@H](c3cc(-c4cc(F)cc(F)c4)ccn3)N2)C1=O [Example 77, (2R,5S)-2-[4-(3,5-Difluorophenyl)-2-pyridyl]-7-methyl-1,7-diazaspiro[4.4]nonan-6-one hydrochloride] | 31.6 µM | 316 µM
CN1CC[C@@]2(CC[C@H](c3cc(-c4cc(-c5ccnn5C)ccc4F)ccn3)N2)C1=O [Example 192, (2R,5S)-2-[4-[2-Fluoro-5-(2-methylpyrazol-3-yl)phenyl]-2-pyridyl]-7-methyl-1,7-diazaspiro[4.4]nonan-6-one hydrochloride] | 1000 µM | –
Cc1cc(-c2ccc(F)cc2)cc([C@@H]2CC[C@]3(CCN(C)C3=O)N2)n1 [Example 56, (2S,5R)-2-[4-(4-Fluorophenyl)-6-methyl-2-pyridyl]-7-methyl-1,7-diazaspiro[4.4]nonan-6-one hydrochloride] | 10 µM | 79.4 µM
CCOc1ccc(F)c(-c2cc([C@@H]3CC[C@]4(CCN(C)C4=O)N3)ncc2CC)c1 [Example 242, (2S,5R)-2-[4-(5-Ethoxy-2-fluoro-phenyl)-5-ethyl-2-pyridyl]-7-methyl-1,7-diazaspiro[4.4]nonan-6-one hydrochloride] | 20 µM | 100 µM
CCOc1ccc(F)c(-c2ccnc([C@H]3CC[C@@]4(CC[C@H](C)NC4=O)N3)c2)c1 [Example 246, hydrochloride] | 1 µM | 15.8 µM
CN1CC[C@@]2(CC[C@@H](c3cc(-c4ccc(C(F)(F)F)cc4)c(OC(C)(C)C)cn3)N2)C1=O [Example 63, (2S,5S)-2-[5-tert-Butoxy-4-[4-(trifluoromethyl)-phenyl]-2-pyridyl]-7-methyl-1,7-diazaspiro[4.4]nonan-6-one hydrochloride] | 10 µM | 79.4 µM
CN1CC[C@]2(CC[C@H](c3cc(-c4ccc(C(F)(F)F)cc4)c(F)cn3)N2)C1=O [Example 61, (2R,5R)-2-[5-Fluoro-4-[4-(trifluoromethyl)phenyl]-2-pyridyl]-7-methyl-1,7-diazaspiro[4.4]nonan-6-one hydrochloride] | 6.31 µM | 100 µM
Cc1cc(-c2cccc(OC(F)(F)F)c2)cc([C@H]2CC[C@@]3(CCN(C)C3=O)N2)n1 [Example 127, (2R,5S)-7-Methyl-2-[6-methyl-4-[3-(trifluoromethoxy)phenyl]-2-pyridyl]-1,7-diazaspiro[4.4]nonan-6-one hydrochloride] | 12.6 µM | 12.6 µM
CCOc1ccc(F)c(-c2cc([C@H]3CC[C@]4(CCN(C)C4=O)N3)ncc2F)c1 [Example 222, (2R,5R)-2-[4-(5-Ethoxy-2-fluoro-phenyl)-5-fluoro-2-pyridyl]-7-methyl-1,7-diazaspiro[4.4]nonan-6-one hydrochloride] | 25.1 µM | 398 µM
CCOc1ccc(F)c(-c2cc([C@H]3CC[C@@]4(CCN(C)C4=O)N3)ncc2F)c1 [Example 223, (2R,5S)-2-[4-(5-Ethoxy-2-fluoro-phenyl)-5-fluoro-2-pyridyl]-7-methyl-1,7-diazaspiro[4.4]nonan-6-one hydrochloride] | 25.1 µM | 158 µM
CCOc1ccc(F)c(-c2ccnc([C@H]3CC[C@]4(CC(C)(C)NC4=O)N3)c2)c1 [Example 218, (2R,5R)-2-[4-(5-Ethoxy-2-fluoro-phenyl)-2-pyridyl]-8,8-dimethyl-1,7-diazaspiro[4.4]nonan-6-one hydrochloride] | 0.501 µM | 6.31 µM
COCc1ccc(F)c(-c2ccnc([C@H]3CC[C@@]4(CCN(C)C4=O)N3)c2)c1 [Example 188, (2R,5S)-2-[4-[2-Fluoro-5-(methoxymethyl)phenyl]-2-pyridyl]-7-methyl-1,7-diazaspiro[4.4]nonan-6-one hydrochloride] | 100 µM | 501 µM
CN1CC[C@@]2(CC[C@H](c3cc(-c4ccc(C(F)(F)F)cc4)ccn3)N2C)C1=O [Example 225, (2R,5S)-1,7-Dimethyl-2-[4-[4-(trifluoromethyl)phenyl]-2-pyridyl]-1,7-diazaspiro[4.4]nonan-6-one hydrochloride] | 25.1 µM | 251 µM
CCOc1ccc(F)c(-c2cc(C)nc([C@@H]3CC[C@]4(CCNC4=O)N3)c2)c1 [Example 102, (2S,5R)-2-[4-(5-Ethoxy-2-fluoro-phenyl)-6-methyl-2-pyridyl]-1,7-diazaspiro[4.4]nonan-6-one hydrochloride] | 2 µM | 25.1 µM
